According to patent US8076485B2, “Methylphenidate derivatives and uses of them” (priority 2005, dated 2011):

What was measured:
[1] = test system: TNFα; test: TNFα release from LPS-stimulated THP-1 monocytes (ELISA); assay type: cell-based; settings: THP-1, LPS 200 ng/ml; Cpd II 15 μg/ml, Dex 10 μM
Procedure: THP-1 is a monocyte cell line obtained from American Type Culture Collection (ATCC) (catalog no. TIB-202). […] After 1 hour, lipopolysaccharide (LPS) (obtained from Sigma) was added to the cultures to give a final concentration of 200 ng/ml, and the cells were then incubated for an additional 4 hours or for an additional 24 hours. After the incubation, the cells were centrifuged, and the supernatants were collected. The concentrations of IL-8 and TNFα in the supernatants were determined by ELISA.
The TNFα ELISA was performed as described in Example 2.

[2] = test system: RAP-1; test: RAP-1 activation pulldown assay in TRiPS cells; assay type: cell-based, human; settings: 15 μg/ml
Procedure: (§1) Day 10 TRiPS cells, 1×10^6, were incubated with 15 μg/ml of the compound of formula II (Cpd II) for 1 hour at 37° C. Then, the cells were incubated with CD3/CD28 beads (1 μl per 100,000 cells) (obtained from Dynal) for 10 minutes at 37° C. The cells were then lysed with a mild buffer (supplied with Pierce EZ-Detect activation kit described below) to produce cell extracts. Protein concentrations of the resulting extracts were determined by bicinchoninic acid (BCA) assay (Pierce) and placed on ice for immediate use.
(§2) Pulldown assays were performed using Pierce EZ-Detect activation kits according to the manufacturer's instructions utilizing GST-RAF-1-RBD and GST-RalGDS-RBD for Ras and RAP-1 respectively. Briefly, 400 μg total protein from each extract was combined with recombinant protein and glutathione resin and incubated at 4° C. for one hour with gentle shaking The resin was then washed to remove unbound protein and the activated Ras and RAP-1 proteins were removed by boiling in the presence of SDS-PAGE loading dye containing reducing agent. Ras and RAP-1 western blots were performed to visualize the proteins using antibodies supplied with the kit. Densitometry of the X-ray films was done by scanning and computer analysis.

[3] = test system: c-Jun; test: c-Jun in VEGF-treated HUVECs (TransAM AP-1 assay); assay type: cell-based, human; settings: Cpd II at 15 μg/ml and 5 μg/ml
Procedure: The amount of c-Jun was determined using a TransAM™ AP-1 Family Transcription Factor Assay Kit and a Nuclear Extract Kit from Active Motif North America, Carlsbad, Calif., according to manufacturer's instructions. Briefly, a nuclear extract of the cells was prepared using the Nuclear Extract Kit. Then, the nuclear extract was added to the wells of a 96-well plate in which oligonucleotide containing a TPA-responsive element (TRE) was immobilized. Activator protein-1 (AP-1) dimers contained in the nuclear extract were bound to this oligonucleotide and were detected using an antibody specific for c-Jun. A secondary antibody conjugated to horseradish peroxidase (HRP) was next added to provide a colorimetric readout that was quantified by spectrophotometry (measurement at 450 nm).

[4] = test system: Ras; test: Ras activation pulldown assay in TRiPS cells; assay type: cell-based, human; settings: 15 μg/ml
Procedure: as §1, §2

[5] = test system: Jurkat T-lymphocyte leukemia cell line; test: Jurkat cell viability (ETH-D1 / calcein AM); assay type: cell-based; settings: Jurkat cells, 72 hours, control 20.85% ± 1.42%
Procedure: The Jurkat T-lymphocyte leukemia cell line was obtained from American Type Culture Collection (ATCC), Rockville, Md. (catalog no. TIB-152). Jurkat cells, at 1×10^5 cells/ml, were cultured at 37° C. and 5% CO2 in IMDM medium (ATCC) with 10% FCS for 72 hours with 7.5 μg/ml or 15 μg/ml of the compound of formula II (Cpd II). Following the incubation, the cells were washed with Hepes buffered saline, split into three equal volumes, and then incubated with 5 μM ethidium bromide dimer-1 (ETH-D1) (obtained from Molecular Probes) and 5 μM calcein AM solution (obtained from Promega) for one hour at 37° C. and 5% CO2 in 96-well culture plates to assay for cell viability. The fluorescence in each well was measured using a plate reader at excitation/emission 485/530 nm and 530/645 nm. Relative percentage of dead to live cells was calculated by dividing ETH-D1 fluorescence by calcein AM fluorescence.

[6] = test system: NFκB; test: Activated NFκB in TNFα- or VEGF-treated HIAECs (TransAM assay); assay type: cell-based; settings: Homo sapiens, VEGF 10 ng/ml, Cpd II 15 μg/ml, read-out: Percent Inhibition (NFκB)
Procedure: Passage 8 (human iliac artery endothelial cells (HIAECs) (obtained from ATCC; catalog no. CC-2545) were grown to confluence in 25 cm^2 flasks in EGM-2 medium. Eighteen hours prior to the experiment, the medium was replaced with EGM-2 medium containing 0.1% FCS plus heparin, GA1000 (gentamycin) and bovine pituitary extract (all from Cambrex) to place the cells in a resting state. To perform the experiment the medium was aspirated from the flasks, and the following additives were added to the flasks in fresh medium (total volume of 5 ml/flask): 15 μg/ml of the compound of formula II (Cpd II) or 10 μM LY 294002. The flasks were incubated 2 hours at 37° C., 5% CO2. After this incubation, VEGF or TNFα was added to give a final concentration 10 ng/ml, and the flasks were incubated for an additional 30 minutes. Then, the amount of NFκB was determined using a TransAM™ NFκB p65/NFκB p50 Transcription Factor Assay Kit and a Nuclear Extract Kit from Active Motif North America, Carlsbad, Calif., as described in Example 12.

[7] = test system: erythropoietin (EPO); test: Erythropoietin (EPO) release from HepG2 cells (ELISA); assay type: cell-based, human; settings: 24 hours
Procedure: HepG2 is a human hepatic cancer cell line, which was obtained from ATCC. HepG2 cells were grown to confluence in 25 cm^2 flasks in IMDM medium containing 10% FCS. Then, the cells were trypsinized as follows. The medium in each flask was aspirated and replaced with 5 ml of 0.025% trypsin/EDTA (Cambrex). The cells were monitored on a microscope until they no longer adhered to the flasks. Then, 5 ml of trypsin neutralizing solution (TNS) (Cambrex) were added to each flask to stop the reaction. The cell suspension was centrifuged at 1000 rpm for 10 minutes, and the supernatants were aspirated. The cells were reconstituted in fresh medium and counted. Then, 4 ml of the cell suspension in medium containing at 1.22×10^6 cells/ml were mixed with an additional 1 ml of medium. Next, 0.5 ml/well of the resulting cell suspension was added to wells in a 24-well culture plate (about 500,000 cells/well). The cells were treated as indicated in Table 5 below and incubated for 24 hours at 37° C., with or without 5% CO2. The supernatants were removed from the wells and centrifuged to remove debris. Next, the supernatants were analyzed for erythropoietin (EPO) production. EPO was measured by ELISA using a kit obtained from R & D Systems, Minneapolis, Minn. (catalog no. DE900) following the manufacturer's instructions.

COC(=O)C(c1ccc(-c2ccccc2)cc1)C1CCCCN1 (stereo not drawn) [Cpd II]
release of TNFα from the LPS-stimulated monocytes [1]: significantly inhibited the release of TNFα | inhibition of RAP-1 [2]: appeared to inhibit RAP-1 | increase in the amount of c-Jun [3]: completely eliminated the increase in the amount of c-Jun | inhibition of Ras protein [4]: very strong inhibition of Ras protein | Relative Percentage Dead/Live ([5]; 7.5 μg/ml): 16.74% ± 2.15% | Relative Percentage Dead/Live ([5]; 15 μg/ml): 40.79% ± 1.81% | inhibition at 15 µg/mL [6]: 70% | Mean Units/ml EPO ([7]; HepG2, hypoxia (5% CO2), Cpd II 15 μg/ml, LY 294002 25 μM, hypoxia alone 108.39 ± 2.81): 71.60 ± 2.01 Units/ml | release of EPO from the HepG2 cells ([7]; HepG2, hypoxia, 15 μg/ml): significantly inhibited the release of EPO
